The values that follow come from patent publication US5072011A, “Pt(IV) complexes” (Johnson Matthey, Inc., priority 1990, dated 1991).

The conditions of series [1]: common organic solvents, e.g., acetone, methylene chloride; cited from earlier work.
For a further series, the system named is ADJ/PC6 tumor. Briefly: antitumor activity using ADJ/PC6 tumor in mice. Format: in vivo. To be noted: for P.O. ED90 / P.O. TI: oral (P.O.); for P.O. TI / I.P. TI: TI from LD50 and ED90; for I.P. ED90 / I.P. TI: parenteral (I.P.). Here is the method:
(§1) Complexes according to the invention were tested for antitumor activity using ADJ/PC6 tumor in mice. The complexes were administered parenterally (I.P.) or orally (P.O.).

The subject of a further series is mice. Description: lethality (LD50) in mice, ADJ/PC6 antitumor test. Format: in vivo. The following applies: for P.O. LD50: oral (P.O.); for I.P. LD50: parenteral (I.P.). Here is the method: as §1

Regarding `N.N.O=C([O-])C1(C(=O)[O-])CCC1.[Pt+2]` [carboplatin], in series [1], the “solubility in water / organic solvents (in words), prior-art complexes” value is “dissolve more readily in water than they do in common organic solvents”.
On to “c-t-c-PtCl2 (O2 CCH2 CH3)2 (NH3)(n-C3 H7 NH2) [Compound 9 (Table 2)]”, for which, in the series with ADJ/PC6 tumor, the “P.O. ED90” value was 8.6 mg/kg, the “P.O. TI” value came out at 13.7, the “I.P. ED90” value was found to be 5.6 mg/kg and the “I.P. TI” value is 7.4. Also, in the series with mice, the “P.O. LD50” value was 118 mg/kg and the “I.P. LD50” value was 41.5 mg/kg.
Turning to “c-t-c-PtCl2 (O2 CCH3)2 (NH3)(n-C3 H7 NH2) [Compound 8 (Table 2)]”, in the series with ADJ/PC6 tumor, the “P.O. ED90” value is on record as 18 mg/kg, the “P.O. TI” value is reported as 13.1, the “I.P. ED90” value was determined as 3.1 mg/kg and the “I.P. TI” value came out at 11.3. In addition, in the series with mice, the “P.O. LD50” value is recorded as 235 mg/kg and the “I.P. LD50” value is given as 35 mg/kg.
